The values below come from ChEMBL document CHEMBL4431301, “The Medicinal Chemistry of Dengue Virus” (J Med Chem, 2016).

The subject of data set [1] is dengue virus type 2. Kind of data set: Antiviral activity against Dengue virus 2 NGC infected in BHK21 cells after 48 hrs by plaque reduction assay. In kind it is functional, organism-based. To be noted: BHK-21, 48 h. (In general: In a plaque reduction assay, fewer plaques than in the control indicate reduced infectivity or spread.)
Data set [2] concerns dengue virus type 2. Kind of data set: Antiviral activity against Dengue virus 2 NGC infected in human K562 cells assessed as inhibition in live viral replication after 48 hrs by plaque assay. To be noted: K562, 48 h. In kind it is functional, organism-based.
Data set [3] relates to dengue virus type 2. Kind of data set: Antiviral activity against Dengue virus 2 NGC infected in human HuH7 cells assessed as reduction in virus replication after 48 hrs by renilla luciferase reporter gene assay. In kind it is functional, organism-based. To be noted: Huh-7, 48 h. A general note: Reporter assays use an easily measured gene product as a stand-in for the process of interest.

Data set [4] in a line: Cytotoxicity against human HuH7 cells assessed as cell viability after 48 hrs by CellTiter Glo assay. The data set is classed as cell-based, Huh-7. (In general: Cellular ATP, detected with luciferase, serves as a proxy for viable cell number.)
The target in data set [5] is T1, Genome polyprotein (dengue virus type 2, UniProt P29990). Kind of data set: Inhibition of RNA unwinding activity of thioredoxin/His6 tagged Dengue virus 2 TSV01 NS3 helicase (171 to 618 residues) expressed in Escherichia coli Rosetta (DE3) using Cy5-MBHA as substrate by fluorescence assay.
The target of data set [6] is T1, Genome polyprotein. Kind of data set: Inhibition of Dengue virus 2 NS3 helicase incubated for 2 mins followed by ATP addition.
In data set [7] the test system is dengue virus type 2. Kind of data set: Antiviral activity against Dengue virus 2 infected in BHK21 cells assessed as reduction in virus replication after 72 hrs by renilla luciferase reporter gene assay. In kind it is functional, organism-based. To be noted: BHK-21, 72 h.
Data set [8] relates to dengue virus type 2. Kind of data set: Antiviral activity against Dengue virus 2 NGC infected in human HuH7 cells assessed as reduction in viral titer after 24 hrs. The data set is classed as functional. To be noted: Huh-7, 24 h.
The subject of data set [9] is dengue virus type 2. Kind of data set: Antiviral activity against Dengue virus 2 16681 infected in human HuH7 cells after 72 hrs by indirect immunofluorescent flow cytometry. The data set is classed as functional, organism-based. To be noted: Dengue virus, 16681, Huh-7, 72 h.
The subject of data set [10] is dengue virus type 2. Kind of data set: Antiviral activity against Dengue virus 2 3295 infected in BHK21 cells after 48 hrs by CFI assay. The data set is classed as functional, organism-based. To be noted: Dengue virus, 3295, BHK-21, 48 h.
Data set [11] relates to dengue virus type 2. Kind of data set: Antiviral activity against Dengue virus 2 NGC infected in african green monkey Vero cells assessed as inhibition of viral yield after 48 hrs. The data set is classed as functional, organism-based.
The subject of data set [12] is dengue virus type 4. Kind of data set: Antiviral activity against Dengue virus 4 8124 infected in african green monkey Vero cells assessed as inhibition of viral yield after 48 hrs. To be noted: Dengue virus, 8124, Vero. In kind it is functional, organism-based.
Data set [13] deals with dengue virus type 3. Kind of data set: Antiviral activity against Dengue virus 3 H87 infected in african green monkey Vero cells assessed as inhibition of viral yield after 48 hrs. In kind it is functional, organism-based.
The test system of data set [14] is dengue virus type 1. Kind of data set: Antiviral activity against Dengue virus 1 Hawaii infected in african green monkey Vero cells assessed as inhibition of viral yield after 48 hrs. In kind it is functional, organism-based.
The next data set has as its system Junin virus. Kind of data set: Antiviral activity against Junin virus IV4454 infected in african green monkey Vero cells assessed as inhibition of viral yield after 48 hrs. The data set is classed as functional, organism-based. The note with it: Mammarenavirus juninense.
In data set [15] the test system is dengue virus type 2. Kind of data set: Antiviral activity against Dengue virus 2 NGC infected in BHK21 cells after 24 hrs by plaque reduction assay. In kind it is functional. The note with it: BHK-21, 24 h.
Data set [16] is described as follows: Cytotoxicity against BHK21 cells after 1 hr by alamar blue assay. In kind it is cell-based, Mesocricetus auratus, BHK-21. The note with it: hamster.
Data set [17] concerns dengue virus type 2. Kind of data set: Antiviral activity against Dengue virus 2 NGC infected in human A549 cells assessed as reduction in virus replication after 48 hrs by renilla luciferase reporter gene assay. In kind it is functional, organism-based. To be noted: A549, 48 h.
Data set [18] concerns dengue virus type 2. Kind of data set: Antiviral activity against Dengue virus 2 infected in BHK21 cells assessed after 3 to 5 days by crystal violet staining based plaque assay. In kind it is functional, organism-based. To be noted: BHK-21.
In data set [19] the test system is dengue virus type 2. Kind of data set: Antiviral activity against Dengue virus 2 NGC infected in african green monkey Vero cells assessed as reduction in viral titer after 48 hrs by plaque assay. In kind it is functional, organism-based.
In data set [20] the test system is dengue virus type 2. Kind of data set: Antiviral activity against Dengue virus 2 NGC infected through intraperitoneal route in AG129 mouse assessed as reduction of viral load in liver at 50 mg/kg, ip bid measured on day 3 by plaque assay relative to vehicle-treated control. The data set is classed as functional.
The subject of data set [21] is dengue virus type 2. Kind of data set: Antiviral activity against Dengue virus 2 NGC infected through intraperitoneal route in AG129 mouse assessed as reduction of viral load in spleen at 50 mg/kg, ip bid measured on day 3 by plaque assay relative to vehicle-treated control. The data set is classed as functional.
The nature of data set [22]: Oral bioavailability in AG129 mouse plasma at 50 mg/kg/day after 1 to 24 hrs by LC-MS/MS. The data set is classed as ADME, organism-based.
Data set [23] relates to dengue virus type 2. Kind of data set: Antiviral activity against Dengue virus 2 NGC infected through intraperitoneal route in AG129 mouse assessed as reduction in peak plasma viremia at 50 mg/kg, ip bid measured on day 3 by plaque assay relative to vehicle-treated control. The data set is classed as functional.
For data set [24], the system named is dengue virus type 1. Kind of data set: Antiviral activity against Dengue virus 1 TH-Sman VR-344 infected in african green monkey Vero cells assessed as reduction in viral titer after 48 hrs by plaque assay. The data set is classed as functional, organism-based. The note with it: TH-Sman VR-344, Vero.
Data set [25] deals with dengue virus type 3. Kind of data set: Antiviral activity against Dengue virus 3 H87 VR-1256 infected in african green monkey Vero cells assessed as reduction in viral titer after 48 hrs by plaque assay. The data set is classed as functional, organism-based. The note with it: H87 VR-1256, Vero.
Data set [26] deals with dengue virus type 2. Kind of data set: Antiviral activity against Dengue virus 2 NGC VR-1255 infected in african green monkey Vero cells assessed as reduction in viral titer after 48 hrs by plaque assay. The data set is classed as functional, organism-based. The note with it: NGC VR-1255, Vero.
For data set [27], the system named is dengue virus type 4. Kind of data set: Antiviral activity against Dengue virus 4 H241 VR-1257 infected in african green monkey Vero cells assessed as reduction in viral titer after 48 hrs by plaque assay. To be noted: H241 VR-1257, Vero. The data set is classed as functional, organism-based.

What is called pEC50 is the negative decadic logarithm of the EC50, by convention in mol/L. The term CC50 denotes the concentration that lowers cell viability or growth by half. The pIC50 is −log10 of the IC50, conventionally taken in molar units. The term EC90 denotes the concentration at which the effect reaches the 90% level. The term IC90 denotes the concentration needed for an effect of 90%. Usually bioavailability stands for the share of a dose that reaches the circulation, judged against a reference dose that is usually intravenous.

pEC50, pIC50: −log10 of the molar value.

T1 sequence (P29990 1476-2093 limits assumed): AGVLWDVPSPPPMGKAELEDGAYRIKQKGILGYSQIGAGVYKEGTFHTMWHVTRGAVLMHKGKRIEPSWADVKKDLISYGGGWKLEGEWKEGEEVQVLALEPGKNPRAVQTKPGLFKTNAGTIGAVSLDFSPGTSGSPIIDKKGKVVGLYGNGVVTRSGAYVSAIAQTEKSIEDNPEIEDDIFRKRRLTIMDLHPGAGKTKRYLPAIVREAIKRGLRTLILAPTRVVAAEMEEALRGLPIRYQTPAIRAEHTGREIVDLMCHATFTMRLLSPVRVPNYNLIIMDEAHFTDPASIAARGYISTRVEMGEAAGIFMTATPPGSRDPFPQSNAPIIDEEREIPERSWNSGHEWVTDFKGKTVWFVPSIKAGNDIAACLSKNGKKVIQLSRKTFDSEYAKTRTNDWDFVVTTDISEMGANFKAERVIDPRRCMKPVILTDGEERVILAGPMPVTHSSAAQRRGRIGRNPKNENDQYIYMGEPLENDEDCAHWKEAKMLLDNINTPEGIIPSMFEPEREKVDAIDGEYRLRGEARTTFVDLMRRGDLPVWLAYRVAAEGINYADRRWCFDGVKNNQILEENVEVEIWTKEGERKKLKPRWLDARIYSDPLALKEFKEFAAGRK

For `OC[C@@H]1[C@@H](O)[C@H](O)[C@@H](O)CN1CCCCCC1(O)CCCCC1`, in the data set with dengue virus type 2 [1], the pEC50 is 5.70.

As to `CC(=C\C(=O)O)/C=C(\C)C[C@H](C)CCCC[C@H]1OC(=O)[C@@H]1CO` [ANTIBIOTIC 1233A], the pEC50 in the data set on dengue virus type 2 [2] was 5.35.

As for `CCN(CC)CCO[C@H]1CC[C@@]2(C)C(=CC[C@@H]3[C@@H]2CC[C@]2(C)C(=O)CC[C@@H]32)C1`, in the data set with dengue virus type 2 [3], the pEC50 is 5.54. Further, in [4], the CC50 at 48 h was 34400 nM.

`Cc1ccc2nc(-c3ccc4nc(-c5ccc(NC(=O)c6ccc7nc(-c8ccc(N)cc8)sc7c6)cc5)sc4c3)sc2c1S(=O)(=O)O`: the pIC50 against Genome polyprotein [5] was 5.82; against Genome polyprotein [6] it was 6.30. Moreover, the pEC50 with dengue virus type 2 [7] was 5.15.

For `CN1CCN(CCOc2cc(OC3CCOCC3)c3c(Nc4c(Cl)ccc5c4OCO5)ncnc3c2)CC1` [SARACATINIB], in the data set with dengue virus type 2 [8], the EC90 was 12200 nM.

`COc1c(C)c2c(c(O)c1C/C=C(\C)CCC(=O)O)C(=O)OC2` [MYCOPHENOLIC ACID] showed a pEC50 with dengue virus type 2 [9] of 5.72.

In the data set with dengue virus type 2 [10], `O[C@H]1[C@H](O)[C@@H](O)CN2CC[C@H](O)[C@H]12` [CASTANOSPERMINE] gave a pEC50 of 4.55.

As to `C=CCn1c2cc(Cl)ccc2c(=O)c2cccc(OC)c21`, the negative-log EC50 (pEC50) in the data set on dengue virus type 2 [11] is 5.26 to 5.60; with dengue virus type 4 [12] it was 4.70; in the data set on dengue virus type 3 [13] it was 4.80 to 5.08; in the data set on dengue virus type 1 [14], 4.80 to 5.08; in the data set with Junin virus, 5.26 to 5.60.

In the data set on dengue virus type 2 [15], `N#C/C(=N\Nc1cccc(Cl)c1)C(=O)c1ccco1` gave an IC90 of 16900 nM. In [16], the CC50 at 1 h is above 100000 nM.

Take `CC[C@H](C)C(=O)O[C@H]1CCC=C2C=C[C@H](C)[C@H](CC[C@@H]3C[C@@H](O)CC(=O)O3)[C@H]21` [MEVASTATIN]: the pEC50 with dengue virus type 2 [17] is 5.06 to 5.74.

In the data set on dengue virus type 2 [18], `CCN(CC)CCCC(C)Nc1ccnc2cc(Cl)ccc12` (centres undefined) [CHLOROQUINE] came in with an EC90 of 5040 nM.

Take `CC[C@H](C)C(=O)O[C@H]1C[C@@H](C)C=C2C=C[C@H](C)[C@H](CC[C@@H]3C[C@@H](O)CC(=O)O3)[C@H]21` [LOVASTATIN]: the pEC50 in the data set with dengue virus type 2 [17] is 5.06 to 5.74.

As for `CCC(C)(C)C(=O)O[C@H]1C[C@@H](C)C=C2C=C[C@H](C)[C@H](CC[C@@H]3C[C@@H](O)CC(=O)O3)[C@H]21` [SIMVASTATIN], in the data set on dengue virus type 2 [17], the pEC50 is 5.06 to 5.74.

`N#C/C(=N\Nc1ccc(C(F)(F)F)cc1)C(=O)c1ccco1` came in with a 90% effect concentration (IC90) with dengue virus type 2 [15] of 1500 nM. This molecule registered a CC50 at 1 h in data set [16] of 84500 nM.

`Nc1c(C(=O)Nc2nnc(-c3ccccc3)s2)sc2nc3c(cc12)CCCCC3`: the pEC50 in the data set on dengue virus type 2 [19] is 7.80. For the same molecule, the EC90 in the data set on dengue virus type 2 [19] was 125 nM. Moreover, the “fold change (FC)” value was found to be 20 in the data set with dengue virus type 2 [20], 3 in the data set with dengue virus type 2 [21] and 52 with dengue virus type 2 [23]. The same molecule registered a bioavailability in [22] of 9.1%.

Turning to `NC(=O)C1(N2CCCCC2)CCN(C(=O)CSc2nc3ccccc3o2)CC1`, the pEC50 in the data set on dengue virus type 1 [24], in the data set on dengue virus type 3 [25], with dengue virus type 2 [26] and in the data set on dengue virus type 4 [27] was 6.57 to 6.69 each time.

Consider `CCCCCCCCCN1C[C@H](O)[C@@H](O)[C@H](O)[C@H]1CO`, for which, in the data set on dengue virus type 2 [1], the pEC50 was 6.00.
